Laboratory results: patent US11209437B2, “Fluorescent probe and preparation method and use thereof” (Fluorescence Diagnosis (shanghai) Biotech Company Ltd., priority 2016, dated 2021)

How the values were obtained:
SNAP protein tags = target: T1, SNAP protein tags (Homo sapiens, UniProt P16455, A127T/A154D/C150Q/C62A/E30R/G131K/G132T/G153L/K125A/K32I/L33F/M134L/N157G/Q115S/Q116H/R128A/R135S/S151G/S152D/S159E); experiment: Fluorescence activation of probe after incubation with corresponding protein tag (SNAP); type: biochemical; settings: probe 5 μM, protein tag 10 μM, 37° C., 1 hr
T1 sequence (P16455 1-182 E30R/K32I/L33F/C62A/Q115S/Q116H/K125A/A127T/R128A/G131K/G132T/M134L/R135S/C150Q/S151G/S152D/G153L/A154D/N157G/S159E): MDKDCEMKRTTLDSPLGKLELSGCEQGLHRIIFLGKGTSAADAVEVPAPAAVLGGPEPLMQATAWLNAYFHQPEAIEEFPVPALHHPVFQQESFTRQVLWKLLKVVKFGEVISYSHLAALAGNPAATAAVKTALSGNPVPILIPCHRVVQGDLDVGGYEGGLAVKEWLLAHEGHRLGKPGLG
Procedure: (§1) Probes were mixed with corresponding protein tags to obtain mixed samples, in which the final probe concentration was 5 μM, and the final protein tag concentration was 10 μM. The mixed samples were incubated 37° C. for 1 hr, fluorescence spectrophotometer was used to detect the change in fluorescence intensity, and the results are shown in Table 1.
(§2) From the quantum yield of probe bound to protein tag, after reacting with the protein tags, the probes of the Examples could be detected to have significant signal enhancement in corresponding excitation transmission channels, the fluorescence activation multiple reached several hundreds to a thousand or more, and the brightness was high, which illustrates that after the probes of the Examples are bound to the protein tags, fluorescence of the probes can be activated, and the probes have good fluorescent molecular switching properties. In contrast, though the fluorescence of the reference probes could also be activated, the quantum yield of activated fluorescence was very low, and the brightness was very poor. In particular, in view of comparison results between probe 98 and reference probe 99, probe 101 and reference probe 102, probe 103 and reference probe 104, probe 105 and reference probe 106, probe 107 and reference probe 108, probe 109 and reference probe 110, probe 111 and reference probe 112, probe 114 and reference probe 115, probe 117 and reference probe 118, probe 120 and reference probe 121 in Table 1, for the same fluorescent dye, when the ligand is connected to the electron donor part of the fluorescent dye, the fluorescence activation brightness of the probe is much higher than the reference probe in which ligand is connected to the electron acceptor part of the fluorescent dye.

[1] = Viscosity responsiveness: fluorescence emission spectra of probes in glycerol and methanol; type: physicochemical; settings: for Emission wavelength: excited at maximum excitation wavelength of each probe; for Fluorescence ratio in glycerol to methanol: probe 1×10^−5 M
Procedure: Probes 1 to 98, 101, 103, 105, 107, 109, 111, 114, 117, and 120, and the reference probes 99, 100, 102, 104, 106, 108, 110, 112, 113, 115, 116, 118, 119, 121, BG-CCVJ and BG-Gly-CCVJ were dissolved in dimethyl sulfoxide, respectively, to prepare mother liquors having a concentration of 1×10^−2 M, to each of which glycerol and methanol were added and uniformly mixed, to prepare solutions finally having a concentration of 1×10^−5 M. Depending on the probes, fluorescence emission spectra of the probes were detected successively with the maximum excitation wavelength of each probe under the same conditions, and the results were shown in Table 1.
That is, these probes are sensitive to viscosity changes and have viscosity responsiveness.

[2] = Fluorescence of free probe prior to binding to a protein tag; type: physicochemical
Procedure: as §1, §2

For `CN(CCOC(=O)NCc1ccc(COc2nc(N)nc3[nH]cnc23)cc1)c1ccc2cc(/C=C(\C#N)c3nc4ccccc4o3)sc2c1` [probe 31], the Fluorescence activation multiple (SNAP protein tags) was 421, the “Quantum yield of probe bound to protein tag” value (shortened to “Quantum yield of probe bound”) (SNAP protein tags) was 0.41 and the Emission wavelength [1] was 607 nm. For the same compound, the “Fluorescence ratio in glycerol to methanol” value (“Fluorescence ratio” below) [1] was 1135 and the “Quantum yield of free probe” value [2] was under 0.001.

In the case of `CN(CCOC(=O)NCc1ccc(COc2nc(N)nc3[nH]cnc23)cc1)c1ccc2cc(/C=C(\C#N)c3nc4ccccc4s3)sc2c1` [probe 32], the Fluorescence activation multiple (SNAP protein tags) is reported as 638, the “Quantum yield of probe bound” value (SNAP protein tags) is reported as 0.46 and the Emission wavelength [1] is reported as 609 nm. For the same compound, the “Fluorescence ratio” value [1] was 997 and the “Quantum yield of free probe” value [2] was under 0.001.

With `CN(CCOC(=O)NCc1ccc(COc2cc(Cl)nc(N)n2)cc1)c1ccc2cc(/C=C(\C#N)C(=O)OC(C)(C)C)sc2c1` [probe 33] the Fluorescence activation multiple (SNAP protein tags) was 957, the “Quantum yield of probe bound” value (SNAP protein tags) was 0.55 and the Emission wavelength [1] was 570 nm. The “Fluorescence ratio” value [1] was 1781 and the “Quantum yield of free probe” value [2] was under 0.001.

In the case of `CC(C)(C)OC(=O)/C(C#N)=C/c1cc2ccc(N(CCC#N)CCOC(=O)NCc3ccc(COc4nc(N)nc5[nH]cnc45)cc3)cc2s1` [probe 36], the Fluorescence activation multiple (SNAP protein tags) is reported as 488, the “Quantum yield of probe bound” value (SNAP protein tags) is reported as 0.50 and the Emission wavelength [1] is reported as 570 nm. The “Fluorescence ratio” value [1] was 1258 and the “Quantum yield of free probe” value [2] was 0.001.

With `CC(C)(C)OC(=O)/C(C#N)=C/c1cc2ccc(N(CCO)CCOC(=O)NCc3ccc(COc4nc(N)nc5[nH]cnc45)cc3)cc2s1` [probe 37] the Fluorescence activation multiple (SNAP protein tags) was 469, the “Quantum yield of probe bound” value (SNAP protein tags) was 0.56 and the Emission wavelength [1] was 570 nm. The “Fluorescence ratio” value [1] was 1135 and the “Quantum yield of free probe” value [2] was 0.0012.

In the case of `CC(C)(C)OC(=O)/C(C#N)=C/c1cc2ccc(N(CCOC(=O)NCCCS(=O)(=O)O)CCOC(=O)NCc3ccc(COc4nc(N)nc5[nH]cnc45)cc3)cc2s1` [probe 39], the Fluorescence activation multiple (SNAP protein tags) is reported as 335, the “Quantum yield of probe bound” value (SNAP protein tags) is reported as 0.55 and the Emission wavelength [1] is reported as 570 nm. The “Fluorescence ratio” value [1] was 892 and the “Quantum yield of free probe” value [2] was 0.0016.

With `CN(CCOC(=O)NCc1ccc(COc2nc(N)nc3[nH]cnc23)cc1)c1ccc2cc(/C=C(\C#N)C(=O)OC(C)(C)C)sc2c1` [probe 40] the Fluorescence activation multiple (SNAP protein tags) was 421, the “Quantum yield of probe bound” value (SNAP protein tags) was 0.41 and the Emission wavelength [1] was 570 nm. For the same compound, the “Fluorescence ratio” value [1] was 759 and the “Quantum yield of free probe” value [2] was 0.001.

With `CC1=N/C(=C/c2cc3ccc(N(C)CCOC(=O)NCc4ccc(COc5nc(N)nc6[nH]cnc56)cc4)cc3s2)C(=O)N1C` [probe 41] the Fluorescence activation multiple (SNAP protein tags) was 212, the “Quantum yield of probe bound” value (SNAP protein tags) was 0.31 and the Emission wavelength [1] was 575 nm. The “Fluorescence ratio” value [1] was 101 and the “Quantum yield of free probe” value [2] was 0.0015.

In the case of `CN1C(=O)/C(=C\c2cc3ccc(N(C)CCOC(=O)NCc4ccc(COc5nc(N)nc6[nH]cnc56)cc4)cc3s2)N=C1c1ccccc1` [probe 42], the Fluorescence activation multiple (SNAP protein tags) is reported as 298, the “Quantum yield of probe bound” value (SNAP protein tags) is reported as 0.38 and the Emission wavelength [1] is reported as 600 nm. The “Fluorescence ratio” value [1] was 178 and the “Quantum yield of free probe” value [2] was 0.0013.

With `CN(CCOC(=O)NCc1ccc(COc2nc(N)nc3[nH]cnc23)cc1)c1ccc2nc(/C=C(\C#N)C(=O)OC(C)(C)C)oc2c1` [probe 43] the Fluorescence activation multiple (SNAP protein tags) was 982, the “Quantum yield of probe bound” value (SNAP protein tags) was 0.37 and the Emission wavelength [1] was 602 nm. The “Fluorescence ratio” value [1] was 1028 and the “Quantum yield of free probe” value [2] was under 0.001.

For `CN(CCOC(=O)NCc1ccc(COc2cc(Cl)nc(N)n2)cc1)c1ccc2nc(/C=C(\C#N)C(=O)OC(C)(C)C)oc2c1` [probe 44], the Fluorescence activation multiple (SNAP protein tags) was 1586, the “Quantum yield of probe bound” value (SNAP protein tags) was 0.37 and the Emission wavelength [1] was 603 nm. For the same compound, the “Fluorescence ratio” value [1] was 1459 and the “Quantum yield of free probe” value [2] was under 0.001.

For `CN(CCOC(=O)NCc1ccc(COc2nc(N)nc3[nH]cnc23)cc1)c1ccc2nc(/C=C(\C#N)c3nc4ccccc4o3)oc2c1` [probe 46], the Fluorescence activation multiple (SNAP protein tags) was 563, the “Quantum yield of probe bound” value (SNAP protein tags) was 0.21 and the Emission wavelength [1] was 620 nm. For the same compound, the “Fluorescence ratio” value [1] was 682 and the “Quantum yield of free probe” value [2] was under 0.001.

For `CN(CCOC(=O)NCc1ccc(COc2nc(N)nc3[nH]cnc23)cc1)c1ccc2nc(/C=C(\C#N)c3nc4ccccc4s3)oc2c1` [probe 47], the Fluorescence activation multiple (SNAP protein tags) was 358, the “Quantum yield of probe bound” value (SNAP protein tags) was 0.26 and the Emission wavelength [1] was 627 nm. The “Fluorescence ratio” value [1] was 235 and the “Quantum yield of free probe” value [2] was under 0.001.

For `CN(CCOC(=O)NCc1ccc(COc2nc(N)nc3[nH]cnc23)cc1)c1ccc2nc(/C=C(\C#N)C(=O)O)oc2c1` [probe 49], the Fluorescence activation multiple (SNAP protein tags) was 541, the “Quantum yield of probe bound” value (SNAP protein tags) was 0.11 and the Emission wavelength [1] was 601 nm. The “Fluorescence ratio” value [1] was 210 and the “Quantum yield of free probe” value [2] was under 0.001.

For `CN1C(=O)/C(=C\c2nc3ccc(N(C)CCOC(=O)NCc4ccc(COc5nc(N)nc6[nH]cnc56)cc4)cc3o2)N=C1c1ccccc1` [probe 50], the Fluorescence activation multiple (SNAP protein tags) was 416, the “Quantum yield of probe bound” value (SNAP protein tags) was 0.29 and the Emission wavelength [1] was 612 nm. For the same compound, the “Fluorescence ratio” value [1] was 358 and the “Quantum yield of free probe” value [2] was under 0.001.

For `CN(CCOC(=O)NCc1ccc(COc2nc(N)nc3[nH]cnc23)cc1)c1ccc2nc(/C=C(\C#N)C(=O)OC(C)(C)C)sc2c1` [probe 51], the Fluorescence activation multiple (SNAP protein tags) was 392, the “Quantum yield of probe bound” value (SNAP protein tags) was 0.25 and the Emission wavelength [1] was 625 nm. For the same compound, the “Fluorescence ratio” value [1] was 359 and the “Quantum yield of free probe” value [2] was under 0.001.

With `CN(CCOC(=O)NCc1ccc(COc2cc(Cl)nc(N)n2)cc1)c1ccc2nc(/C=C(\C#N)C(=O)OC(C)(C)C)sc2c1` [probe 52] the Fluorescence activation multiple (SNAP protein tags) was 435, the “Quantum yield of probe bound” value (SNAP protein tags) was 0.25 and the Emission wavelength [1] was 625 nm. The “Fluorescence ratio” value [1] was 270 and the “Quantum yield of free probe” value [2] was under 0.001.

For `CN(CCOC(=O)NCc1ccc(COc2nc(N)nc3[nH]cnc23)cc1)c1ccc2nc(/C=C(\C#N)c3nc4ccccc4o3)sc2c1` [probe 54], the Fluorescence activation multiple (SNAP protein tags) was 498, the “Quantum yield of probe bound” value (SNAP protein tags) was 0.17 and the Emission wavelength [1] was 650 nm. For the same compound, the “Fluorescence ratio” value [1] was 391 and the “Quantum yield of free probe” value [2] was under 0.001.

In the case of `CN(CCOC(=O)NCc1ccc(COc2nc(N)nc3[nH]cnc23)cc1)c1ccc2nc(/C=C(\C#N)c3nc4ccccc4s3)sc2c1` [probe 55], the Fluorescence activation multiple (SNAP protein tags) is reported as 382, the “Quantum yield of probe bound” value (SNAP protein tags) is reported as 0.25 and the Emission wavelength [1] is reported as 651 nm. For the same compound, the “Fluorescence ratio” value [1] was 211 and the “Quantum yield of free probe” value [2] was under 0.001.

For `CN(CCOC(=O)NCc1ccc(COc2nc(N)nc3[nH]cnc23)cc1)c1ccc(C#C/C=C(\C#N)c2nc3ccccc3o2)cc1` [probe 58], the Fluorescence activation multiple (SNAP protein tags) was 519, the “Quantum yield of probe bound” value (SNAP protein tags) was 0.27 and the Emission wavelength [1] was 590 nm. The “Fluorescence ratio” value [1] was 419 and the “Quantum yield of free probe” value [2] was under 0.001.

For `CN(CCOC(=O)NCc1ccc(COc2nc(N)nc3[nH]cnc23)cc1)c1ccc(C#C/C=C(\C#N)c2nc3ccccc3s2)cc1` [probe 59], the Fluorescence activation multiple (SNAP protein tags) was 498, the “Quantum yield of probe bound” value (SNAP protein tags) was 0.39 and the Emission wavelength [1] was 600 nm. For the same compound, the “Fluorescence ratio” value [1] was 370 and the “Quantum yield of free probe” value [2] was under 0.001.

In the case of `CN(CCOC(=O)NCc1ccc(COc2nc(N)nc3[nH]cnc23)cc1)c1cc2sc3cc(/C=C(\C#N)c4nc5ccccc5o4)sc3c2s1` [probe 61], the Fluorescence activation multiple (SNAP protein tags) is reported as 668, the “Quantum yield of probe bound” value (SNAP protein tags) is reported as 0.77 and the Emission wavelength [1] is reported as 620 nm. The “Fluorescence ratio” value [1] was 817 and the “Quantum yield of free probe” value [2] was 0.0012.

With `CN(CCOC(=O)NCc1ccc(COc2nc(N)nc3[nH]cnc23)cc1)c1cc2sc3cc(/C=C(\C#N)c4nc5ccccc5s4)sc3c2s1` [probe 62] the Fluorescence activation multiple (SNAP protein tags) was 592, the “Quantum yield of probe bound” value (SNAP protein tags) was 0.32 and the Emission wavelength [1] was 640 nm. For the same compound, the “Fluorescence ratio” value [1] was 711 and the “Quantum yield of free probe” value [2] was under 0.001.
